Results reported in patent US8129371B2, “Thienopyrimidine and pyrazolopyrimidine compounds and their use as mTOR kinase and PI3 kinase inhibitors” (Wyeth LLC, priority 2007, dated 2012).

Legend:
Human mTOR (FLAG-TOR) = target: T1, Human mTOR (FLAG-TOR) (Homo sapiens, UniProt P42345); assay: Human mTOR kinase assay with purified enzyme, DELFIA format; type: biochemical; conditions: purified human mTOR enzyme, DELFIA format
T1 construct: FLAG
Outline: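 Purified FLAG-mTOR in HEPES pH 7.4 buffer with 10 mM MnCl2 was preincubated with inhibitor and reacted 2 h at room temperature with His6-S6K substrate, then stopped with EDTA/EGTA. Phospho-T389 S6K detected by DELFIA with Eu-labelled antibody (40 ng/mL) after plate capture; inhibition computed from signal.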

PI3K [1] = target: T2, PI3K (Homo sapiens, UniProt P42336); assay: Fluorescence polarization assay for PI3K; type: biochemical; conditions: PI3 Kinase α isoform, fluorescence polarization; read-out: PI3 Kinase α IC50
T2 construct: PI3 Kinase α IC50; other: PI3 Kinase α; other: PI3 Kinase α isoform, fluorescence polarization
Outline: (§1)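 PI3K was preincubated with compound (final DMSO 1%), and the reaction was started with PIP2/ATP substrate and run 30–60 min. It was stopped with a detector mix giving 10 nM red probe and 70 nM GST-GRP.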

PI3K [2] = target: T3, PI3K (Homo sapiens, UniProt P48736); assay: Fluorescence polarization assay for PI3K; type: biochemical; conditions: PI3 Kinase γ isoform, fluorescence polarization; read-out: PI3 Kinase γ IC50
T3 construct: PI3 Kinase γ IC50; other: PI3 Kinase γ; other: PI3 Kinase γ isoform, fluorescence polarization
Outline: as §1

prostate line LNCap = assay: In vitro cell culture growth assay (MTS), LNCap; type: cell-based; conditions: Homo sapiens, LNCaP, 72 h, LNCap cells, three days after drug treatment
Outline: (§2)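 Inhibitors were added one day after plating, and viable cells were measured 3 days later by MTS conversion (absorbance 490 nm).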

breast line MDA468 = assay: In vitro cell culture growth assay (MTS), MDA468; type: cell-based; conditions: Homo sapiens, 72 h, MDA468 cells, three days after drug treatment
Outline: as §2

T2 sequence (P42336 whole entry, canonical isoform): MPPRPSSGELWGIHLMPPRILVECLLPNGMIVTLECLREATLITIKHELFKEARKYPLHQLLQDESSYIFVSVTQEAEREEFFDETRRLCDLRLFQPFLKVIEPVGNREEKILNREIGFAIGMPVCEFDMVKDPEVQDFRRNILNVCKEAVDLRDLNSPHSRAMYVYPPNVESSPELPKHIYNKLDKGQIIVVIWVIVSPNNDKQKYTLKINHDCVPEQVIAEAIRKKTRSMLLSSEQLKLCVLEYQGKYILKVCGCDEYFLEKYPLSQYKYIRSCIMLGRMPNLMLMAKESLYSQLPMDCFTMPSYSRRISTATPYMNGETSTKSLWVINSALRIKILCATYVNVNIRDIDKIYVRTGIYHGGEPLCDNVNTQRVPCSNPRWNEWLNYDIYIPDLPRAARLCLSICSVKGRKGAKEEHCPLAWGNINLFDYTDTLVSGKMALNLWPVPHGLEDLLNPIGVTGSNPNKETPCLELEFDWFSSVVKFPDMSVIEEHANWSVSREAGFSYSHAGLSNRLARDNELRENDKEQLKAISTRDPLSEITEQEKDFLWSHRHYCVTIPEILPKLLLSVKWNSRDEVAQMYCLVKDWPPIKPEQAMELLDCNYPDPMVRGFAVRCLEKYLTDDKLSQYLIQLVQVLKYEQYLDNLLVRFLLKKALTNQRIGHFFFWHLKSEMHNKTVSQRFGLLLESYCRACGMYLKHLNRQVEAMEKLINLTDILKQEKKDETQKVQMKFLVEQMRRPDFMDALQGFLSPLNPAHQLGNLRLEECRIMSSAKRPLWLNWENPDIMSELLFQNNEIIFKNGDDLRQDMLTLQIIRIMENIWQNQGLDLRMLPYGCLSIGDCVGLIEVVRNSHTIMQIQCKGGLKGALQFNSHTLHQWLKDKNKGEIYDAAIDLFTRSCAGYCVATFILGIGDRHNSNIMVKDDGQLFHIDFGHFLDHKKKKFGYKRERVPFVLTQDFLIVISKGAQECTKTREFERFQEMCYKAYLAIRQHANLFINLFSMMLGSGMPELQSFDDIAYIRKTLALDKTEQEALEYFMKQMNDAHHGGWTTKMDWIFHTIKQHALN
T3 sequence (P48736 whole entry, canonical isoform): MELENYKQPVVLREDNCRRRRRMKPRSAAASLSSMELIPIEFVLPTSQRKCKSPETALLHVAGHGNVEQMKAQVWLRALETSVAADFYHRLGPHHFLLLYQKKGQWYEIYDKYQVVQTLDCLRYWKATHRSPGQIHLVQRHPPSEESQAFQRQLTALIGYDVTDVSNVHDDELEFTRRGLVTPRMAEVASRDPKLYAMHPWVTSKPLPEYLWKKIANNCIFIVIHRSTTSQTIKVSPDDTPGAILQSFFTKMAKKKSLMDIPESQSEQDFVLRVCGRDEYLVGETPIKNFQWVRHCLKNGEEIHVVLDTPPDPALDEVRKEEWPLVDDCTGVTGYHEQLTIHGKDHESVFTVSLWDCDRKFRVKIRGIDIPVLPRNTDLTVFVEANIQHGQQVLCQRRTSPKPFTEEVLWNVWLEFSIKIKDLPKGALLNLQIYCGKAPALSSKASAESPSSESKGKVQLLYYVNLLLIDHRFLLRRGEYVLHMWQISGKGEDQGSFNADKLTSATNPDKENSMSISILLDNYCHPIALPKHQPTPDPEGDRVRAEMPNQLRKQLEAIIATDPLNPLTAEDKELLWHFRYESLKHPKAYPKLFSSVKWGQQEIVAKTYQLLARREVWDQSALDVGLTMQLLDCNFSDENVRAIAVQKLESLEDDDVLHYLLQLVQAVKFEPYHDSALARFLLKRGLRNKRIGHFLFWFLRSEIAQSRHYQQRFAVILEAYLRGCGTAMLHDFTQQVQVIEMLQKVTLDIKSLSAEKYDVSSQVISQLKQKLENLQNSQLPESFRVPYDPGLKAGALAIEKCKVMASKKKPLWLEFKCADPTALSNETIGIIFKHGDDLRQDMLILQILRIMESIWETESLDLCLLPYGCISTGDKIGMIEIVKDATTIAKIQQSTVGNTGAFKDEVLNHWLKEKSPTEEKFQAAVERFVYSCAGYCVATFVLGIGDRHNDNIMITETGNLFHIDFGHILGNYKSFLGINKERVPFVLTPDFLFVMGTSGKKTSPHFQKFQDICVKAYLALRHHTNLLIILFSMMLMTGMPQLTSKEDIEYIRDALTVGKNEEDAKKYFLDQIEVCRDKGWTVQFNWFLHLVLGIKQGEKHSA

| Structure (SMILES) | IC50 (Human mTOR (FLAG-TOR)) [nM] | IC50 (PI3K [1]) [nM] | IC50 (PI3K [2]) [nM] | IC50 (prostate line LNCap) [nM] | IC50 (breast line MDA468) [nM] |
| --- | --- | --- | --- | --- | --- |
| CCn1nc(N2CCCC2)c2c(N3CC4CCC(C3)O4)nc(-c3ccc(NC(=O)Nc4cccnc4)cc3)nc21 [Example 346, 1-{4-[1-ethyl-4-(8-oxa-3-azabicyclo[3.2.1]oct-3-yl)-3-pyrrolidin-1-yl-1H-pyrazolo[3,4-d]pyrimidin-6-yl]phenyl}-3-pyridin-3-ylurea] | 10.9 | 448 | 372 | 290 | 950 |
| CCn1nc(N2CCCC2)c2c(N3CC4CCC(C3)O4)nc(-c3ccc(NC(=O)NC)cc3)nc21 [Example 347, 1-{4-[1-ethyl-4-(8-oxa-3-azabicyclo[3.2.1]oct-3-yl)-3-pyrrolidin-1-yl-1H-pyrazolo[3,4-d]pyrimidin-6-yl]phenyl}-3-methylurea] | 5.6 | 1100 | 7130 | 310 | 1300 |
| CCn1nc(N2CCN(C)CC2)c2c(N3CC4CCC(C3)O4)nc(-c3ccc(NC(=O)NC)cc3)nc21 [Example 348, 1-{4-[1-ethyl-3-(4-methylpiperazin-1-yl)-4-(8-oxa-3-azabicyclo[3.2.1]oct-3-yl)-1H-pyrazolo[3,4-d]pyrimidin-6-yl]phenyl}-3-methylurea] | 7.5 | 1010 | 8590 | 280 | 1000 |
| CCn1nc(-c2cccnc2)c2c(N3CC4CCC(C3)O4)nc(-c3ccc(NC(=O)NC)cc3)nc21 [Example 349, 1-{4-[1-ethyl-4-(8-oxa-3-azabicyclo[3.2.1]oct-3-yl)-3-pyridin-3-yl-1H-pyrazolo[3,4-d]pyrimidin-6-yl]phenyl}-3-methylurea] | 8.9 | 596 | 4960 | 210 | 800 |
| C=Cc1nn(CC)c2nc(-c3ccc(NC(=O)NC)cc3)nc(N3CC4CCC(C3)O4)c12 [Example 350, 1-{4-[1-ethyl-4-(8-oxa-3-azabicyclo[3.2.1]oct-3-yl)-3-vinyl-1H-pyrazolo[3,4-d]pyrimidin-6-yl]phenyl}-3-methylurea] | 1.95 | 565 | 6580 | 130 | 480 |
| CCn1nc(C(O)CO)c2c(N3CC4CCC(C3)O4)nc(-c3ccc(NC(=O)NC)cc3)nc21 (centres unmarked) [Example 351, 1-{4-[3-(1,2-dihydroxyethyl)-1-ethyl-4-(8-oxa-3-azabicyclo[3.2.1]oct-3-yl)-1H-pyrazolo[3,4-d]pyrimidin-6-yl]phenyl}-3-methylurea] | 9 | 2460 | > 10000 | 1050 | 1600 |
| CCn1nc(C=O)c2c(N3CC4CCC(C3)O4)nc(-c3ccc(NC(=O)NC)cc3)nc21 [Example 352, 1-{4-[1-ethyl-3-formyl-4-(8-oxa-3-azabicyclo[3.2.1]oct-3-yl)-1H-pyrazolo[3,4-d]pyrimidin-6-yl]phenyl}-3-methylurea] | 17.5 | 1080 | 6100 | 200 | 700 |
| CCn1nc(CN2CCN(C)CC2)c2c(N3CC4CCC(C3)O4)nc(-c3ccc(NC(=O)NC)cc3)nc21 [Example 353, 1-(4-{1-ethyl-3-[(4-methylpiperazin-1-yl)methyl]-4-(8-oxa-3-azabicyclo[3.2.1]oct-3-yl)-1H-pyrazolo[3,4-d]pyrimidin-6-yl}phenyl)-3-methylurea] | 15 | 1560 | > 10000 | 700 | 1200 |
| CCn1nc(CN2CCCC2)c2c(N3CC4CCC(C3)O4)nc(-c3ccc(NC(=O)NC)cc3)nc21 [Example 354, 1-{4-[1-ethyl-4-(8-oxa-3-azabicyclo[3.2.1]oct-3-yl)-3-(pyrrolidin-1-ylmethyl)-1H-pyrazolo[3,4-d]pyrimidin-6-yl]phenyl}-3-methylurea] | 66.5 | 2390 | > 10000 | 1200 | 2900 |
| COC(=O)N1CCC(n2ncc3c(N4C5CCC4COC5)nc(-c4ccc(NC(=O)OCCO)cc4)nc32)CC1 [Example 355, methyl 4-[6-(4-{[(2-hydroxyethoxy)carbonyl]amino}phenyl)-4-(3-oxa-8-azabicyclo[3.2.1]oct-8-yl)-1H-pyrazolo[3,4-d]pyrimidin-1-yl]piperidine-1-carboxylate] | 0.775 | 7450 | 6800 | 58 | 220 |
| CNC(=O)Nc1ccc(-c2nc(N3C4CCC3COC4)c3cnn(C4CCN(C(=O)OC)CC4)c3n2)cc1 [Example 356, methyl 4-[6-{4-[(methylcarbamoyl)amino]phenyl}-4-(3-oxa-8-azabicyclo[3.2.1]oct-8-yl)-1H-pyrazolo[3,4-d]pyrimidin-1-yl]piperidine-1-carboxylate] | 0.22 | 4270 | 6740 | 30 | 50 |
| CCNC(=O)Nc1ccc(-c2nc(N3C4CCC3COC4)c3cnn(C4CCN(C(=O)OC)CC4)c3n2)cc1 [Example 357, methyl 4-[6-{4-[(ethylcarbamoyl)amino]phenyl}-4-(3-oxa-8-azabicyclo[3.2.1]oct-8-yl)-1H-pyrazolo[3,4-d]pyrimidin-1-yl]piperidine-1-carboxylate] | 0.625 | 5550 | 9160 | 9 | 70 |
| COC(=O)N1CCC(n2ncc3c(N4C5CCC4COC5)nc(-c4ccc(NC(=O)NCCF)cc4)nc32)CC1 [Example 358, methyl 4-[6-(4-{[(2-fluoroethyl)carbamoyl]amino}phenyl)-4-(3-oxa-8-azabicyclol[3.2.1]oct-8-yl)-1H-pyrazolo[3,4-d]pyrimidin-1-yl]piperidine-1-carboxylate] | 0.495 | 7700 | 7930 | 6 | 35 |
| COC(=O)N1CCC(n2ncc3c(N4C5CCC4COC5)nc(-c4ccc(NC(=O)NC5CC5)cc4)nc32)CC1 [Example 359, methyl 4-[6-{4-[(cyclopropylcarbamoyl)amino]phenyl}-4-(3-oxa-8-azabicyclo[3.2.1]oct-8-yl)-1H-pyrazolo[3,4-d]pyrimidin-1-yl]piperidine-1-carboxylate] | 0.705 | 5640 | 7790 | 6 | 36 |
| COC(=O)N1CCC(n2ncc3c(N4C5CCC4COC5)nc(-c4ccc(NC(=O)Nc5ccccc5)cc4)nc32)CC1 [Example 360, methyl 4-[4-(3-oxa-8-azabicyclo[3.2.1]oct-8-yl)-6-{4-[(phenylcarbamoyl)amino]phenyl}-1H-pyrazolo[3,4-d]pyrimidin-1-yl]piperidine-1-carboxylate] | 0.425 | 1460 | 2150 | 10 | 40 |
| COC(=O)N1CCC(n2ncc3c(N4C5CCC4COC5)nc(-c4ccc(NC(=O)Nc5cccnc5)cc4)nc32)CC1 [Example 361, methyl 4-[4-(3-oxa-8-azabicyclo[3.2.1]oct-8-yl)-6-{4-[(pyridin-3-ylcarbamoyl)amino]phenyl}-1H-pyrazolo[3,4-d]pyrimidin-1-yl]piperidine-1-carboxylate] | 0.165 | 1830 | 4070 | 2 | 20 |
